From the supplement of paper PMC6045584
± gives the standard deviation of the averaged measurements.

Assays:
LAPATINIB = compound: CS(=O)(=O)CCNCc1ccc(-c2ccc3ncnc(Nc4ccc(OCc5cccc(F)c5)c(Cl)c4)c3c2)o1 [LAPATINIB]; test: surviving fraction relative to DMSO-only wells; higher = less growth inhibition; details: exposure time: 5 days
Outline: (§1)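 Inhibitors were tested at 0.5, 1, 5, 10, 50, 100, 500 and 1000 nM, applied continuously for five days beginning 24 hours after log-phase tumour cells were seeded at 250–500 per well in 384-well plates. CellTiter-Glo luminescence served as the viability measure, expressed as surviving fraction against the median of DMSO-only wells. Each line, screened three times, was kept only with replicate Pearson r >0.7 and median Z' >0.3.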

RESVERATROL = compound: Oc1ccc(/C=C/c2cc(O)cc(O)c2)cc1 [RESVERATROL]; test: as above; details: exposure time: 5 days
Outline: as §1

| Test System | surviving fraction (LAPATINIB; 0.5 nM) | surviving fraction (LAPATINIB; 1 nM) | surviving fraction (LAPATINIB; 5 nM) | surviving fraction (LAPATINIB; 10 nM) | surviving fraction (LAPATINIB; 50 nM) | surviving fraction (LAPATINIB; 100 nM) | surviving fraction (LAPATINIB; 500 nM) | surviving fraction (LAPATINIB; 1000 nM) | surviving fraction (RESVERATROL; 0.5 nM) | surviving fraction (RESVERATROL; 1 nM) | surviving fraction (RESVERATROL; 5 nM) | surviving fraction (RESVERATROL; 10 nM) | surviving fraction (RESVERATROL; 50 nM) | surviving fraction (RESVERATROL; 100 nM) | surviving fraction (RESVERATROL; 500 nM) | surviving fraction (RESVERATROL; 1000 nM) |
| --- | --- | --- | --- | --- | --- | --- | --- | --- | --- | --- | --- | --- | --- | --- | --- | --- |
| SCC36 HEADNECK | 1.03 ± 0.067 | 1.1 ± 0.089 | 1.08 ± 0.062 | 1.11 ± 0.051 | 0.918 ± 0.049 | 0.883 ± 0.067 | 0.543 ± 0.051 | 0.394 ± 0.043 | 1.13 ± 0.082 | 1.14 ± 0.11 | 1.22 ± 0.044 | 1.19 ± 0.045 | 1.25 ± 0.07 | 1.25 ± 0.03 | 1.05 ± 0.099 | 1.16 ± 0.16 |
| SCC47 HEADNECK | 1.09 ± 0.1 | 1.1 ± 0.016 | 1.09 ± 0.011 | 1.18 ± 0.033 | 1.05 ± 0.044 | 1.05 ± 0.072 | 0.82 ± 0.041 | 0.705 ± 0.053 | 1.09 ± 0.13 | 1.11 ± 0.096 | 1.09 ± 0.066 | 1.21 ± 0.038 | 1.21 ± 0.072 | 1.17 ± 0.051 | 1.09 ± 0.023 | 1.2 ± 0.057 |
| SCC90 HEADNECK | 1.02 ± 0.038 | 1.01 ± 0.1 | 1.01 ± 0.087 | 0.971 ± 0.04 | 0.845 ± 0.037 | 0.802 ± 0.067 | 0.532 ± 0.015 | 0.508 ± 0.023 | 1.01 ± 0.012 | 1.045 ± 0.0079 | 1.12 ± 0.15 | 1.08 ± 0.021 | 1.03 ± 0.061 | 1.05 ± 0.064 | 1.05 ± 0.019 | 0.956 ± 0.076 |
| SG27 HEADNECK | 1.09 ± 0.081 | 1.09 ± 0.056 | 1.1 ± 0.27 | 1.18 ± 0.17 | 0.977 ± 0.14 | 1.04 ± 0.067 | 0.988 ± 0.026 | 1.06 ± 0.06 | 1.15 ± 0.14 | 1.02 ± 0.069 | 1.03 ± 0.067 | 1.06 ± 0.1 | 1.04 ± 0.083 | 1.17 ± 0.059 | 1.15 ± 0.085 | 1.08 ± 0.12 |
| SG28 HEADNECK | 0.979 ± 0.1 | 1.07 ± 0.03 | 0.851 ± 0.11 | 1.03 ± 0.042 | 0.764 ± 0.043 | 0.775 ± 0.079 | 0.599 ± 0.057 | 0.563 ± 0.021 | 1.03 ± 0.12 | 1.07 ± 0.1 | 1.15 ± 0.11 | 1 ± 0.057 | 1.01 ± 0.005 | 1 ± 0.051 | 1.06 ± 0.053 | 1.03 ± 0.2 |
| SG31 HEADNECK | 1.17 ± 0.26 | 1.05 ± 0.18 | 0.799 ± 0.1 | 0.948 ± 0.093 | 0.699 ± 0.084 | 1.02 ± 0.27 | 0.775 ± 0.23 | 0.846 ± 0.21 | 1.1 ± 0.23 | 1.23 ± 0.18 | 1.03 ± 0.095 | 1.13 ± 0.095 | 1.05 ± 0.15 | 0.975 ± 0.19 | 1.13 ± 0.18 | 1.42 ± 0.32 |
| SG32 HEADNECK | 1.05 ± 0.22 | 1.02 ± 0.1 | 1.07 ± 0.14 | 1.12 ± 0.17 | – | 1.67 ± 0.82 | 0.905 ± 0.23 | 0.801 ± 0.18 | 1.02 ± 0.14 | 0.975 ± 0.06 | 1.16 ± 0.25 | 0.989 ± 0.051 | 0.999 ± 0.018 | 1.05 ± 0.092 | 0.989 ± 0.2 | 1.01 ± 0.11 |
| SG43 HEADNECK | 0.869 ± 0.17 | 0.93 ± 0.22 | 0.84 ± 0.095 | 0.821 ± 0.067 | 0.711 ± 0.23 | 0.494 ± 0.12 | 0.304 ± 0.011 | 0.314 ± 0.13 | 0.856 ± 0.14 | 1.06 ± 0.048 | 0.867 ± 0.23 | 0.914 ± 0.025 | 0.822 ± 0.13 | 0.794 ± 0.19 | 0.848 ± 0.14 | 0.898 ± 0.22 |
| SIHA CERVIX | 1.05 ± 0.033 | 1.14 ± 0.021 | 1.06 ± 0.02 | 1.11 ± 0.037 | 1.03 ± 0.031 | 1.02 ± 0.086 | 1.05 ± 0.06 | 1.1 ± 0.042 | 1.02 ± 0.034 | 1.05 ± 0.041 | 1.116 ± 0.011 | 1.14 ± 0.066 | 1.07 ± 0.072 | 1.09 ± 0.045 | 1.09 ± 0.066 | 1.15 ± 0.02 |
| SJSA1 BONE | 1.471 ± 0.007 | 1.67 ± 0.035 | 1.67 ± 0.09 | 1.72 ± 0.04 | 1.62 ± 0.095 | 1.47 ± 0.077 | 1.42 ± 0.022 | 1.75 ± 0.037 | 1.62 ± 0.083 | 1.74 ± 0.059 | 1.65 ± 0.053 | 1.79 ± 0.04 | 1.67 ± 0.13 | 1.74 ± 0.092 | 1.61 ± 0.13 | 1.78 ± 0.078 |
| SKBR3 BREAST | 1.07 ± 0.057 | 1.06 ± 0.04 | 1.12 ± 0.12 | 1.01 ± 0.054 | 0.697 ± 0.026 | 0.508 ± 0.03 | 0.233 ± 0.014 | 0.171 ± 0.021 | 0.966 ± 0.15 | 1.06 ± 0.048 | 1.1 ± 0.1 | 1.07 ± 0.076 | 1.08 ± 0.053 | 1.09 ± 0.028 | 1.11 ± 0.12 | 1.04 ± 0.055 |
| SNU475 LIVER | 1.01 ± 0.013 | 1.03 ± 0.04 | 1.01 ± 0.027 | 0.992 ± 0.035 | 0.953 ± 0.042 | 1 ± 0.041 | 0.987 ± 0.047 | 0.954 ± 0.04 | 0.98 ± 0.043 | 1.04 ± 0.029 | 1.02 ± 0.06 | 0.988 ± 0.029 | 0.9453 ± 0.006 | 1.01 ± 0.014 | 0.99 ± 0.035 | 1.04 ± 0.017 |
| SUM44 BREAST | 1.05 ± 0.069 | 1.11 ± 0.19 | 1.11 ± 0.066 | 1.17 ± 0.21 | 1.04 ± 0.045 | 1.21 ± 0.17 | 1.08 ± 0.07 | 1.24 ± 0.18 | 1.1 ± 0.1 | 1.18 ± 0.28 | 1.19 ± 0.27 | 1.25 ± 0.36 | 1.1 ± 0.17 | 1.21 ± 0.26 | 1.2 ± 0.3 | 1.31 ± 0.41 |
| SUM149 BREAST | 0.945 ± 0.078 | 0.988 ± 0.11 | 0.943 ± 0.043 | 0.889 ± 0.12 | 0.741 ± 0.046 | 0.656 ± 0.019 | 0.492 ± 0.018 | 0.424 ± 0.047 | 0.958 ± 0.048 | 1.02 ± 0.07 | 1.04 ± 0.082 | 0.958 ± 0.013 | 1.07 ± 0.048 | 0.989 ± 0.062 | 1.09 ± 0.034 | 1.09 ± 0.1 |
| SUM149.B1*.S BREAST | 1.08 ± 0.049 | 1.23 ± 0.033 | 1.12 ± 0.023 | 1.11 ± 0.026 | 0.995 ± 0.06 | 1.07 ± 0.057 | 1.09 ± 0.035 | 1.05 ± 0.038 | 1.05 ± 0.056 | 1.09 ± 0.041 | 1.08 ± 0.051 | 1.1 ± 0.061 | 1.02 ± 0.036 | 1.128 ± 0.0016 | 1.09 ± 0.043 | 1.14 ± 0.026 |
| SUM159 BREAST | 1.08 ± 0.022 | 1.13 ± 0.018 | 1.1 ± 0.037 | 1.07 ± 0.014 | 1.06 ± 0.029 | 1.1 ± 0.036 | 1.043 ± 0.01 | 1.03 ± 0.013 | 1.04 ± 0.028 | 1.1 ± 0.024 | 1.06 ± 0.03 | 1.06 ± 0.021 | 1.033 ± 0.0053 | 1.07 ± 0.016 | 1.08 ± 0.018 | 1.11 ± 0.017 |
